# Values quoted from earlier work as cited in PubChem BioAssay AID1259409 (Chemical Carcinogenesis Research Information System (CCRIS), 2018).
# Test system: rodent chemically induced tumor inhibition, incidence and multiplicity
# Assay: CCRIS tumor inhibitor studies
smiles,measurement,setting,value
O=c1[nH]c(=O)n([C@H]2C[C@H](O)[C@@H](CO)O2)cc1Br,"tumour outcome (control, treated, inhibition, significance)","Carcinogen: DIETHYLNITROSAMINE, 55-18-5, Dose [Inhibitor]: 0, 100 MG/KG INJECTED 4, 24, AND 48 HR AFTER EACH CARCINOGEN EXPOSURE (STUDY DURATION: 6 MO), Route [Inhibitor]: INTRAPERITONEAL, Species: RAT, Strain/Sex: BD6/MALE, Target Tissue: Type of Lesion: ESOPHAGUS: TUMOR, Dose [Carcinogen]: 80 MG/KG 1 WK FOR 7 WK","10/40 (25%), 11/35 (31%), -24%, not calculated"
same,"tumour outcome (control, treated, inhibition, significance)","Carcinogen: DIETHYLNITROSAMINE, 55-18-5, Dose [Inhibitor]: 0, 100 MG/KG INJECTED 4, 24, AND 48 HR AFTER EACH CARCINOGEN EXPOSURE (STUDY DURATION: 6 MO), Route [Inhibitor]: INTRAPERITONEAL, Species: RAT, Strain/Sex: BD6/MALE, Target Tissue: Type of Lesion: LIVER: TUMOR, Dose [Carcinogen]: 80 MG/KG 1/WK FOR 7 WK","29/40 (73%), 20/35 (57%), 22%, not calculated"
S=C=NCCCCc1ccccc1,"tumour outcome (control, treated, inhibition, significance)","Carcinogen: 4-(METHYLNITROSAMINO)-1-(3-PYRIDYL)-1-BUTANONE, 64091-91-4, Dose [Inhibitor]: 0, 0.2 UMOL 1/D FOR 4 D ADMINISTERED PRIOR TO CARCINOGEN TREATMENT (STUDY DURATION:116D), Route [Inhibitor]: GAVAGE, Species: MOUSE, Strain/Sex: STRAIN A, Target Tissue: Type of Lesion: LUNG: ADENOMA, Dose [Carcinogen]: 10 UMOL ONCE 2 HR AFTER FINAL DOSE OF INHIBITOR, Promoter: NONE USED","100%, 100%, 0%, not significant"
same,"tumour outcome (control, treated, inhibition, significance)","Carcinogen: 4-(METHYLNITROSAMINO)-1-(3-PYRIDYL)-1-BUTANONE, 64091-91-4, Dose [Inhibitor]: 0, 1 UMOL 1/D FOR 4 D ADMINISTERED PRIOR TO CARCINOGEN TREATMENT (STUDY DURATION:116 D), Route [Inhibitor]: GAVAGE, Species: MOUSE, Strain/Sex: STRAIN A, Target Tissue: Type of Lesion: LUNG: ADENOMA, Dose [Carcinogen]: 10 UMOL ONCE 2 HR AFTER FINAL DOSE OF INHIBITOR, Promoter: NONE USED","100%, 42%, 58%, p<0.05"
same,"tumour outcome (control, treated, inhibition, significance)","Carcinogen: 4-(METHYLNITROSAMINO)-1-(3-PYRIDYL)-1-BUTANONE, 64091-91-4, Dose [Inhibitor]: 0, 5 UMOL 1/D FOR 4 D ADMINISTERED PRIOR TO CARCINOGEN TREATMENT (STUDY DURATION: 116D), Route [Inhibitor]: GAVAGE, Species: MOUSE, Strain/Sex: STRAIN A, Target Tissue: Type of Lesion: LUNG: ADENOMA, Dose [Carcinogen]: 10 UMOL ONCE 2 HR AFTER FINAL DOSE OF INHIBITOR, Promoter: NONE USED","100%, 11%, 89%, p<0.05"
same,"tumour outcome (control, treated, inhibition, significance)","Carcinogen: 4-(METHYLNITROSAMINO)-1-(3-PYRIDYL)-1-BUTANONE, 64091-91-4, Dose [Inhibitor]: 0, 5 UMOL 1/D FOR 4 D ADMINISTERED PRIOR TO CARCINOGEN DOSE (STUDY DURATION: 116 D), Route [Inhibitor]: GAVAGE, Species: MOUSE, Strain/Sex: STRAIN-A, Target Tissue: Type of Lesion: LUNG: ADENOMA, Dose [Carcinogen]: 10 UMOL IN SALINE ADMINISTERED 2 HR POST LAST AGENT DOSE, Promoter: NONE USED","100%, 32%, 68%, p<0.001"
same,"tumour outcome (control, treated, inhibition, significance)","Carcinogen: 4-(N-NITROSOMETHYLAMINO)-1-(3-PYRIDYL)-1-BUTANONE, 64091-91-4, Dose [Inhibitor]: 0, 5 UMOL/D FOR 4 CONSECUTIVE DAYS (STUDY DURATION: 16.5 WK), Route [Inhibitor]: GAVAGE, Species: MOUSE, Strain/Sex: STRAIN-A/FEMALE, Target Tissue: Type of Lesion: LUNG: ADENOMA, Dose [Carcinogen]: 10 UMOL ONCE 2 HR POST LAST AGENT DOSE, Promoter: NONE USED","100%, 32%, 68%, not calculated"
same,"tumour outcome (control, treated, inhibition, significance)","Carcinogen: N-NITROSOMETHYLBENZYLAMINE, 937-40-6, Dose [Inhibitor]: 0, 0.4 UMOL/G IN DIET FOR 25 WK BEGINNING 2 WK PRIOR TO CARCINOGEN TREATMENT (STUDY DURATION: 25 WK), Route [Inhibitor]: ORAL, Species: RAT, Strain/Sex: F344/MALE, Target Tissue: Type of Lesion: ESOPHAGUS: TUMOR, Dose [Carcinogen]: 0.5 MG/KG BW IN 20% DMSO 1/WK FOR 15 WK, Promoter: NONE USED","100%, 93%, 7%, not significant"
same,"tumour outcome (control, treated, inhibition, significance)","Carcinogen: N-NITROSOMETHYLBENZYLAMINE, 937-40-6, Dose [Inhibitor]: 0, 1 UMOL/G IN DIET FOR 25 WK BEGINNING 2 WK PRIOR TO CARCINOGEN TREATMENT (STUDY DURATION: 25 WK), Route [Inhibitor]: ORAL, Species: RAT, Strain/Sex: F344/MALE, Target Tissue: Type of Lesion: ESOPHAGUS: TUMOR, Dose [Carcinogen]: 0.5 MG/KG BW IN 20% DMSO 1/WK FOR 15 WK, Promoter: NONE USED","100%, 93%, 7%, not significant"
same,"tumour outcome (control, treated, inhibition, significance)","Carcinogen: N-NITROSOMETHYLBENZYLAMINE, 937-40-6, Dose [Inhibitor]: 0, 2.5 UMOL/G IN DIET FOR 25 WK BEGINNING 2 WK PRIOR TO CARCINOGEN TREATMENT (STUDY DURATION: 25 WK), Route [Inhibitor]: ORAL, Species: RAT, Strain/Sex: F344/MALE, Target Tissue: Type of Lesion: ESOPHAGUS: TUMOR, Dose [Carcinogen]: 0.5 MG/KG BW IN 20% DMSO 1/WK FOR 15 WK, Promoter: NONE USED","100%, 100%, 0%, not significant"
C[Se]C#N,"tumour outcome (control, treated, inhibition, significance)","Carcinogen: 7,12-DIMETHYLBENZ[A]ANTHRACENE, 57-97-6, Dose [Inhibitor]: 0, 1 PPM (AS SELENIUM) IN DIET BEGINNING 2 WK PRIOR TO CARCINOGEN DOSE AND CONTINUING FOR DURATION OF STUDY (STUDY DURAT, Route [Inhibitor]: ORAL, Species: RAT, Strain/Sex: SPRAGUE-DAWLEY/FEMALE, Target Tissue: Type of Lesion: MAMMARY GLAND: ADENOCARCINOMA, Dose [Carcinogen]: 10 MG ONCE AT 55 D OF AGE, Promoter: NONE USED","88%, 64%, 27%, not significant"
same,"tumour outcome (control, treated, inhibition, significance)","Carcinogen: 7,12-DIMETHYLBENZ[A]ANTHRACENE, 57-97-6, Dose [Inhibitor]: 0, 2 PPM (AS SELENIUM) IN DIET BEGINNING 2 WK PRIOR TO CARCINOGEN DOSE AND CONTINUING FOR DURATION OF STUDY (STUDY DURAT, Route [Inhibitor]: ORAL, Species: RAT, Strain/Sex: SPRAGUE-DAWLEY/FEMALE, Target Tissue: Type of Lesion: MAMMARY GLAND: ADENOCARCINOMA, Dose [Carcinogen]: 10 MG ONCE AT 55 D OF AGE, Promoter: NONE USED","88%, 52%, 41%, p<0.05"
same,"tumour outcome (control, treated, inhibition, significance)","Carcinogen: 7,12-DIMETHYLBENZ[A]ANTHRACENE, 57-97-6, Dose [Inhibitor]: 0, 3 PPM (AS SELENIUM) IN DIET BEGINNING 2 WK PRIOR TO CARCINOGEN DOSE AND CONTINUING FOR DURATION OF STUDY (STUDY DURAT, Route [Inhibitor]: ORAL, Species: RAT, Strain/Sex: SPRAGUE-DAWLEY/FEMALE, Target Tissue: Type of Lesion: MAMMARY GLAND: ADENOCARCINOMA, Dose [Carcinogen]: 10 MG ONCE AT 55 D OF AGE, Promoter: NONE USED","88%, 40%, 55%, p<0.05"
same,"tumour outcome (control, treated, inhibition, significance)","Carcinogen: 7,12-DIMETHYLBENZ[A]ANTHRACENE, 57-97-6, Dose [Inhibitor]: 0.1, 2 PPM (SELENIUM) IN DIET FOR 3 WK BEGINNING 2 WK PRIOR TO CARCINOGEN DOSE (STUDY DURATION: 25 WK), Route [Inhibitor]: ORAL, Species: RAT, Strain/Sex: SPRAGUE-DAWLEY/FEMALE, Target Tissue: Type of Lesion: MAMMARY GLAND: TUMOR, Dose [Carcinogen]: 10 MG ONCE, Promoter: NONE USED","25/30 (83%), 19/30 (63%), 24%, not significant"
CSCC[C@H](N)C(=O)O,"tumour outcome (control, treated, inhibition, significance)","Carcinogen: 7,12-DIMETHYLBENZ[A]ANTHRACENE, 57-97-6, Dose [Inhibitor]: 0.06 MMOL/G DIET DAILY FOR 17 WK STARTING 1 WK PRIOR TO CARCINOGEN TREATMENT AND CONTINUING THROUGH THE END OF THE STUDY, Route [Inhibitor]: ORAL, Species: RAT, Strain/Sex: SPRAGUE-DAWLEY/FEMALE, Target Tissue: Type of Lesion: MAMMARY GLAND: TUMOR, Dose [Carcinogen]: 12 MG IN 1 ML OLIVE OIL ONCE, Promoter: NONE USED","59%, 72%, -22%, not calculated"
same,"tumour outcome (control, treated, inhibition, significance)","Carcinogen: N-METHYL-N'-NITRO-N-NITROSOGUANADINE, 70-25-7, Dose [Inhibitor]: 0, 150 MG/KG BW 1/2 D FOR 26 WK BEGINNING POST CARCINOGEN TREATMENT (STUDY DURATION: 52 WK), Route [Inhibitor]: SUBCUTANEOUS, Species: RAT, Strain/Sex: WISTAR/MALE, Target Tissue: Type of Lesion: STOMACH: ADENOCARCINOMA, Dose [Carcinogen]: 25 UG/ML IN DRINKING WATER FOR 25 WK, Promoter: AMMONIUM ACETATE, 631-61-8, SODIUM HYPOCHLORITE, 7681-52-9, Promoter: AMMONIUM ACETATE, 631-61-8, SODIUM HYPOCHLORITE, 7681-52-9","19/19 (100%), 9/18 (50%), 50%, p<0.01"
same,"tumour outcome (control, treated, inhibition, significance)","Carcinogen: N-NITROSOBIS(2-OXOPROPYL)AMINE [60559-38-4], Dose [Inhibitor]: 2% IN DIET FOR 27 WK BEGINNING IMMEDIATELY POST LAST CARCINOGEN DOSE (STUDY DURATION: 32 WK), Route [Inhibitor]: ORAL, Species: HAMSTER, Strain/Sex: SYRIAN/FEMALE, Target Tissue: Type of Lesion: PANCREAS: ADENOCARCINOMA, Dose [Carcinogen]: 10 MG/KG BW 1X/WK FOR 5 WK (STUDY DURATION: 32 WK), Promoter: NONE","20/28 (71.4%), 7/19 (36.8%), 48%, p<0.05"
